Assay results from ChEMBL document CHEMBL5696442, “Discovery of type II inhibitors of TGFβ-activated kinase 1 (TAK1) and mitogen-activated protein kinase kinase kinase kinase 2 (MAP4K2)” (J Med Chem, 2015).
Active and inactive are the calls of the source. No cut-off for these calls is given here.

Experiments:
[1] = molecular target: Epidermal growth factor receptor (Homo sapiens) (UniProt P00533); test: Inhibition of EGFR Lys1 labeling site harbouring IPVAIKELR in human Huh-7 cells at 1 uM by KiNativ Profiling analysis relative to control; assay type: cell-based
Sequence of Epidermal growth factor receptor (Homo sapiens) (P00533 whole entry): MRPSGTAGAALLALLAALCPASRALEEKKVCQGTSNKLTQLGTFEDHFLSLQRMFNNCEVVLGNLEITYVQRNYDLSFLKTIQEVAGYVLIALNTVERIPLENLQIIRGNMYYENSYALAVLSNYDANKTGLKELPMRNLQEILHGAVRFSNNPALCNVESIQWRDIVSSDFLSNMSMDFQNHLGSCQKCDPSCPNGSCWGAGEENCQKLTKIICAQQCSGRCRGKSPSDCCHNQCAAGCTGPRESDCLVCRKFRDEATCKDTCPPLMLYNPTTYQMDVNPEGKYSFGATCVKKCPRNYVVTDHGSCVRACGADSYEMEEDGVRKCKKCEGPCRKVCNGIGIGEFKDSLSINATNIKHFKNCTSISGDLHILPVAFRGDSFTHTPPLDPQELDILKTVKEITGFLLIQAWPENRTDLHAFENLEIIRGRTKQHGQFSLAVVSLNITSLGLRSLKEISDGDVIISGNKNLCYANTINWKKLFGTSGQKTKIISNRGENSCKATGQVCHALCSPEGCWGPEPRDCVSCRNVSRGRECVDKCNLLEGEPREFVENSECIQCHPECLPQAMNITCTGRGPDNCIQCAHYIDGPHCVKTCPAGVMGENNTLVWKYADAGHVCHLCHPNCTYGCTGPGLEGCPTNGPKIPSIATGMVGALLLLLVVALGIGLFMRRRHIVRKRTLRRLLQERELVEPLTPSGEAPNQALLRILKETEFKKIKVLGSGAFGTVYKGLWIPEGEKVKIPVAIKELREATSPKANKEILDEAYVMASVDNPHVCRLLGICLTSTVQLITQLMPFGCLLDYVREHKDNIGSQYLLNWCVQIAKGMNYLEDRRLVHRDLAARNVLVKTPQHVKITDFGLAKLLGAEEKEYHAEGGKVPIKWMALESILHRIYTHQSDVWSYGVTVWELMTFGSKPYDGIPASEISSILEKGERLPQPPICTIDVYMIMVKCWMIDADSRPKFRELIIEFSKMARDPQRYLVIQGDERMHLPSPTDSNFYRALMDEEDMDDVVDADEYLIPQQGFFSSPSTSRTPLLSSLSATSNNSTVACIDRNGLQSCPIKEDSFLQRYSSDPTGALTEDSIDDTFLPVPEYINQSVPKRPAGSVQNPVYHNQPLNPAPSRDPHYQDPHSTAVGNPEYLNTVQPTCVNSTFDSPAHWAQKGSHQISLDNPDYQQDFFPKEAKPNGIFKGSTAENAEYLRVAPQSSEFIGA

[2] = molecular target: Mitogen-activated protein kinase 3 (Homo sapiens) (UniProt P27361); test: Inhibition of Erk1 Lys2 labeling site harbouring YIHSANVLHRDLKPSNLLINTTCDLK in human Huh-7 cell lysate at 1 uM by KiNativ Profiling analysis relative to control; assay type: subcellular
Sequence of Mitogen-activated protein kinase 3 (Homo sapiens) (P27361 whole entry): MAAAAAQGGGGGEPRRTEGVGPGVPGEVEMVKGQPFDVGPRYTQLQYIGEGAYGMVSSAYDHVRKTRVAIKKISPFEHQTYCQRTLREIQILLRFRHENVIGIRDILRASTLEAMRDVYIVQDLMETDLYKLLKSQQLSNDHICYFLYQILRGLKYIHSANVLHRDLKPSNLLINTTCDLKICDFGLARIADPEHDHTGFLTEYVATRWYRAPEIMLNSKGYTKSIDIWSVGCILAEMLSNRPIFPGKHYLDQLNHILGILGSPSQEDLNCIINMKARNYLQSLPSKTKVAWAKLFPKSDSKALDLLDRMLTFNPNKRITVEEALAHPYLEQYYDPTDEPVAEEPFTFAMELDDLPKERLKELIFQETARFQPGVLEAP

[3] = molecular target: Serine/threonine-protein kinase WNK3 (Homo sapiens) (UniProt Q9BYP7); test: Inhibition of Wnk3 ACT labeling site in human Huh-7 cell lysate at 1 uM by KiNativ Profiling analysis relative to control; assay type: subcellular
[4] = molecular target: Myosin-IIIb (Homo sapiens) (UniProt Q8WXR4); test: Inhibition of MYO3B (unknown origin) at 10 uM by Ambit Kinomescan binding assay relative to control
[5] = molecular target: Protein-tyrosine kinase 2-beta (Homo sapiens) (UniProt Q14289); test: Inhibition of PYK2 (unknown origin) at 10 uM by Ambit Kinomescan binding assay relative to control; values are per cent of control
[6] = molecular target: Activin receptor type-2B (Homo sapiens) (UniProt Q13705); test: Inhibition of ACVR2B (unknown origin) at 10 uM by Ambit Kinomescan binding assay
[7] = molecular target: c-Jun N-terminal kinase, JNK (Homo sapiens) (UniProt P45983+P53779+P45984); test: Inhibition of JNK1/2/3 K2 labeling site in human Huh-7 cells at 10 uM by KiNativ Profiling analysis relative to control; assay type: cell-based
[8] = molecular target: Cyclin-dependent kinase 13 (Homo sapiens) (UniProt Q14004); test: Inhibition of CHED K2 labeling site in human Huh-7 cells at 10 uM by KiNativ Profiling analysis relative to control; assay type: cell-based
[9] = molecular target: T1, Serine/threonine-protein kinase Nek9 (Homo sapiens) (UniProt Q8TD19); test: Inhibition of NEK9 K1 labeling site harbouring TEDDSLVVWKEVDLTR in human Huh-7 cells at 10 uM by KiNativ Profiling analysis relative to control; assay type: cell-based
T1 sequence (whole entry): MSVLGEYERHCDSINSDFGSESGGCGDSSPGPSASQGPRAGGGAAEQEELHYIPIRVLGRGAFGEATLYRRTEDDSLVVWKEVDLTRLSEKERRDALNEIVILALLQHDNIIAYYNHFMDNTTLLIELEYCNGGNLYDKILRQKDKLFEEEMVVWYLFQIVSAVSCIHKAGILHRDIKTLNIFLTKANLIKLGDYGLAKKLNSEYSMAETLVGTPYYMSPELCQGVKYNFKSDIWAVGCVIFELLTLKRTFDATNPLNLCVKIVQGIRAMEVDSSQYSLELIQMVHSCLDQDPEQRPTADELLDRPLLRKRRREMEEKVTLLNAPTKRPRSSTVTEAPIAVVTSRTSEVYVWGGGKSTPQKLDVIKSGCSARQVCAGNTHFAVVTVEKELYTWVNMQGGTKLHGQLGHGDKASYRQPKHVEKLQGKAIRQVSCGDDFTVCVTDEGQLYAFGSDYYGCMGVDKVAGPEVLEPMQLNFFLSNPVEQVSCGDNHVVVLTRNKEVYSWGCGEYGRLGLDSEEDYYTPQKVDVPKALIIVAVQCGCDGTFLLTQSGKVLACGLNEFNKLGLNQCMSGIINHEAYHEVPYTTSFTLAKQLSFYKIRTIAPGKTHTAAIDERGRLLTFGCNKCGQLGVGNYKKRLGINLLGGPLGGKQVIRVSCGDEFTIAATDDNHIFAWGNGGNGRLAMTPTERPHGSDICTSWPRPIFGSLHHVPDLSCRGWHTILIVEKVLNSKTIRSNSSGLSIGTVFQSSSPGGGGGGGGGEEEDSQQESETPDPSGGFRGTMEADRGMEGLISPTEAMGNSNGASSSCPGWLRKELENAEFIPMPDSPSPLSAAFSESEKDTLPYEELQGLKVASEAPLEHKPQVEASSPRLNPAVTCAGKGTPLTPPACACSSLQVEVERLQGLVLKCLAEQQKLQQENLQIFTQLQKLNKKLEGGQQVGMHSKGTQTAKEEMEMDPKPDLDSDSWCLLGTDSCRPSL

[10] = molecular target: Phosphatidylinositol 4-kinase alpha (Homo sapiens) (UniProt P42356); test: Inhibition of PI4KA ATP labeling site in human A-375 cells at 0.5 uM by KiNativ Profiling analysis relative to control; assay type: cell-based
[11] = molecular target: cGMP-dependent protein kinase 2 (Homo sapiens) (UniProt Q13237); test: Inhibition of PRKG2 (unknown origin) at 1 uM by Ambit Kinomescan binding assay relative to control
Sequence of cGMP-dependent protein kinase 2 (Homo sapiens) (Q13237 whole entry): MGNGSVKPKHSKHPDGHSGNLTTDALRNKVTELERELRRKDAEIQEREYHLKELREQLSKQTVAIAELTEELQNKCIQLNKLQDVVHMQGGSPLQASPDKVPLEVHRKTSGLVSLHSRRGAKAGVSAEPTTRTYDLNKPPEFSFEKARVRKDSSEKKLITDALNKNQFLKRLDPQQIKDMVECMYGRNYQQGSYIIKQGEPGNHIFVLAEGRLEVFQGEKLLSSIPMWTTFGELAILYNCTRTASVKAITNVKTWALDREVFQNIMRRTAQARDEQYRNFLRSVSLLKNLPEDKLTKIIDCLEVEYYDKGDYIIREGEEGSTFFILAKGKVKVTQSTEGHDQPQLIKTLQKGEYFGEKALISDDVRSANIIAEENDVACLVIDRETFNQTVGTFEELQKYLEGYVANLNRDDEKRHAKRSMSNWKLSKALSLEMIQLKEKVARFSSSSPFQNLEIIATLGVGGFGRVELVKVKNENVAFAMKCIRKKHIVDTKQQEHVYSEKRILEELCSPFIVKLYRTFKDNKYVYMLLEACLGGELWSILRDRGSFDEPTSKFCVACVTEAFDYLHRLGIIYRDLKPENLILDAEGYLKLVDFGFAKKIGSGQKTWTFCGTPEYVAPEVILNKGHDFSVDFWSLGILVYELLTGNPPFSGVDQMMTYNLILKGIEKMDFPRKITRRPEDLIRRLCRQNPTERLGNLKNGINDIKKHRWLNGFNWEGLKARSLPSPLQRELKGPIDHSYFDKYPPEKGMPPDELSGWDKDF

[12] = molecular target: Mitogen-activated protein kinase 9 (Homo sapiens, UniProt P45984); test: Inhibition of JNK2 (unknown origin) at 1 uM by Ambit Kinomescan binding assay relative to control
Sequence of Mitogen-activated protein kinase 9 (P45984 whole entry, looked up): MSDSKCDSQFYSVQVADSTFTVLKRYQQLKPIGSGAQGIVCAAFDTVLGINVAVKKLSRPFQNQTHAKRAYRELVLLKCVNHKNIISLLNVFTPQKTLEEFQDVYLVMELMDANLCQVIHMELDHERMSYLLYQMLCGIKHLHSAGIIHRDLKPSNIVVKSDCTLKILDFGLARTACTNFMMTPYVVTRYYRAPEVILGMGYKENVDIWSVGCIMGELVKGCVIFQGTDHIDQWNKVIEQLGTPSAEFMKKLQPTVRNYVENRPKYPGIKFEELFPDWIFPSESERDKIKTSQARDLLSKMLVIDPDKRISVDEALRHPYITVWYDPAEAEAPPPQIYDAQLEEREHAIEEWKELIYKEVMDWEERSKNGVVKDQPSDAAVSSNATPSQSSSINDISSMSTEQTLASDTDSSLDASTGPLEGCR

[13] = molecular target: Homeodomain-interacting protein kinase 3 (Homo sapiens) (UniProt Q9H422); test: Inhibition of HIPK3 (unknown origin) at 1 uM by Ambit Kinomescan binding assay relative to control; values are per cent of control
Sequence of Homeodomain-interacting protein kinase 3 (Homo sapiens) (Q9H422 whole entry, looked up): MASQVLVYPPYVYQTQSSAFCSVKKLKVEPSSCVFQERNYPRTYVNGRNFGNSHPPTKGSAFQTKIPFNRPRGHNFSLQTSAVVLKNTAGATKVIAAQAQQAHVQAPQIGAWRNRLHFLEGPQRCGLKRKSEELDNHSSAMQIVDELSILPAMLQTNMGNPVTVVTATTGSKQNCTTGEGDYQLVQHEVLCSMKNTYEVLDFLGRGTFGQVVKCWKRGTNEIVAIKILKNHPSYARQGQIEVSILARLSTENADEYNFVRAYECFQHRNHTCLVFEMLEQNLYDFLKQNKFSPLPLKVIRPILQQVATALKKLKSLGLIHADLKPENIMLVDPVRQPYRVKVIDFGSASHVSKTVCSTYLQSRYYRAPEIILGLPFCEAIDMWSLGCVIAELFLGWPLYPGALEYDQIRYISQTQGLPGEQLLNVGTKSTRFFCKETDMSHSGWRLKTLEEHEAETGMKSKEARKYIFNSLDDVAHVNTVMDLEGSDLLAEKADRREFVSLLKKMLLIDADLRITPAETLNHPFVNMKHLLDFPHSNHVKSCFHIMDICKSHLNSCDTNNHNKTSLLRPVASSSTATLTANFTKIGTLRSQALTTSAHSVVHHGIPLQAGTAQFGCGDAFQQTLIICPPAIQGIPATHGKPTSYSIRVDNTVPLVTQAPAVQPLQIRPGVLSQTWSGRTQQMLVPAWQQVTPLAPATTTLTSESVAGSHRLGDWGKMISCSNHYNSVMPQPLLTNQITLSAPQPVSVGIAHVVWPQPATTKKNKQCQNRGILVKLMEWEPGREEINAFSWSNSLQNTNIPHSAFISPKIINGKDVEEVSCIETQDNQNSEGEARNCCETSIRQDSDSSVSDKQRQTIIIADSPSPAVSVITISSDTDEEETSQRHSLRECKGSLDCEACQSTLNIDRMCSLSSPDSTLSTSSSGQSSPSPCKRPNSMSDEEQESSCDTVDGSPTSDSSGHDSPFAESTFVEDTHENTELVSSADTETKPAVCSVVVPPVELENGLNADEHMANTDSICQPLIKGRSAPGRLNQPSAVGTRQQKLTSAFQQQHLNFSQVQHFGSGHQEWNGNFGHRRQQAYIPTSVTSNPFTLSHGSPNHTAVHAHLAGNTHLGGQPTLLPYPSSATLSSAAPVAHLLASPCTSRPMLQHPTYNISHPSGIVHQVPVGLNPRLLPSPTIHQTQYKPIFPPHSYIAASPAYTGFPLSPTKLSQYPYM

[14] = molecular target: Tyrosine-protein kinase Yes (Homo sapiens) (UniProt P07947); test: Inhibition of YES (unknown origin) at 1 uM by Ambit Kinomescan binding assay relative to control; values are per cent of control
Sequence of Tyrosine-protein kinase Yes (Homo sapiens) (P07947 2-543 limits assumed): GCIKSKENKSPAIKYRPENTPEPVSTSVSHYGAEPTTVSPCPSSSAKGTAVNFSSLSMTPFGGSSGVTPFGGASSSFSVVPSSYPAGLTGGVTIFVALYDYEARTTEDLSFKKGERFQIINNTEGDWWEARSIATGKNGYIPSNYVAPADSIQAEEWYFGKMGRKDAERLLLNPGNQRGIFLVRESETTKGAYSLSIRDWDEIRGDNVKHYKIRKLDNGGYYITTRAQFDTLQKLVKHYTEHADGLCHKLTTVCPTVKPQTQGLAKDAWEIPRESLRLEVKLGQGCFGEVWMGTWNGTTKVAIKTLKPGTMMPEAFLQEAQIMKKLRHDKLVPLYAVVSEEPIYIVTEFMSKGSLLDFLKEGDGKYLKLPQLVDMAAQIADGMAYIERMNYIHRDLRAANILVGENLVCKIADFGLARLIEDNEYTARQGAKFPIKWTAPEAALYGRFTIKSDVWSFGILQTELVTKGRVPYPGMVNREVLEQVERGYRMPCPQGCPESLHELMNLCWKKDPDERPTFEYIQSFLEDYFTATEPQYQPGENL

[15] = molecular target: Serine/threonine-protein kinase OSR1 (Homo sapiens) (UniProt O95747); test: Inhibition of OSR1 (unknown origin) at 1 uM by Ambit Kinomescan binding assay relative to control; values are per cent of control
[16] = molecular target: Tyrosine-protein kinase Blk (Homo sapiens) (UniProt P51451); test: Inhibition of BLK (unknown origin) at 1 uM by Ambit Kinomescan binding assay relative to control; values are per cent of control
Sequence of Tyrosine-protein kinase Blk (Homo sapiens) (P51451 2-505 limits assumed): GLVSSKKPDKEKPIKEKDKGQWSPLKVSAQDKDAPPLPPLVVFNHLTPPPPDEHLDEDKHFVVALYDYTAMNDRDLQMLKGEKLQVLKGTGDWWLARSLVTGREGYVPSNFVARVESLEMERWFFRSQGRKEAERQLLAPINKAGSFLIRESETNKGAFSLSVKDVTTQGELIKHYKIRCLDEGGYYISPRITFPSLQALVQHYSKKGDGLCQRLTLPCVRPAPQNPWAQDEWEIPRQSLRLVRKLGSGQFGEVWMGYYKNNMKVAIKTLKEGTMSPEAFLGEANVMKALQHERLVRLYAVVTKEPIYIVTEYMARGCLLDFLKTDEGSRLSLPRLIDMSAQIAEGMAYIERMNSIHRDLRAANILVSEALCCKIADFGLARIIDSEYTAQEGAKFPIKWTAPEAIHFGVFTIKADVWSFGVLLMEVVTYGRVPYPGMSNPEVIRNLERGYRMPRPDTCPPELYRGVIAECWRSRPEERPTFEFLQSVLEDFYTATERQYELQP

`CNc1cc(Oc2cc(C(=O)Nc3cc(N4CCN(C)CC4)cc(C(F)(F)F)c3)ccc2C)ncn1` showed an inhibition [1] of 7.2%, an inhibition [2] of 20.7% and an inhibition [3] of -6.9%.

For `CCN1CCN(Cc2ccc(NC(=O)c3ccc(C)c(Oc4ccnc5[nH]ccc45)c3)cc2C(F)(F)F)CC1`, the inhibition [4] was 4.8%, the residual activity [5] was 2.1% and the inhibition [6] was “inactive”. For the same molecule, the inhibition [7] was 60.1%, the inhibition [8] was “inactive” and the inhibition [9] was 18.6%.

Molecule `CCN1CCN(Cc2ccc(NC(=O)c3ccc(C)c(/C=C/c4cnc5[nH]ccc5c4OC)c3)cc2C(F)(F)F)CC1` has an inhibition [10] of -8%, an inhibition [11] of 82% and an inhibition [12] of 6.6%. It also gave a residual activity [13] of 80%, a percent of control [14] of 2.2% and a residual activity [15] of 100%. The residual activity [16] was 0.25%.
